Literature values in patent US6533967B1, “Initiating system for solid polyester granule manufacture” (Orica Australia Pty Ltd, priority 1999, dated 2003).

Tested on: rat
Settings: inhalation of vapours, 4 h

SMILES: CCN(CC)c1ccccc1 [N,N-diethylaniline]
- LC50 rat: 1920 mg/m^3/4 h
